Active and inactive are the calls of the source. No cut-off for these calls is given here.
Columns and labels:
[1] = target: T1, Metabotropic glutamate receptor 4 (Homo sapiens, UniProt Q14833); experiment: Activation of human mGluR4 expressed in CHO cells coexpressing Gqi5 protein assessed as potentiation of glutamate-induced response; assay type: cell-based
[2] = target: T1, Metabotropic glutamate receptor 4; experiment: Activation of human mGluR4 expressed in CHO cells coexpressing Gqi5 protein assessed as potentiation of glutamate-induced response relative to glutamate alone; assay type: cell-based; parameters: concentration or dose not given beside the values
[3] = target: Metabotropic glutamate receptor 2 (Homo sapiens) (UniProt Q14416); experiment: Antagonist activity at mGluR2 assessed as effect on glutamate-induced response; assay type: functional
[4] = target: Metabotropic glutamate receptor 5 (Homo sapiens) (UniProt P41594); experiment: Antagonist activity at mGluR5 assessed as effect on glutamate-induced response; assay type: functional
[5] = target: T1, Metabotropic glutamate receptor 4; experiment: Activation of human mGluR4 expressed in CHO cells coexpressing Gqi5 protein in absence of glutamate; assay type: cell-based
[6] = target: Metabotropic glutamate receptor 7 (Homo sapiens) (UniProt Q14831); experiment: Antagonist activity at mGluR7 assessed as effect on glutamate-induced response; assay type: functional
[7] = target: Metabotropic glutamate receptor 1 (Homo sapiens) (UniProt Q13255); experiment: Antagonist activity at mGluR1 assessed as effect on glutamate-induced response; assay type: functional; parameters: scale not given: the % may be the effect or the level left
[8] = target: Metabotropic glutamate receptor 8 (Homo sapiens) (UniProt O00222); experiment: Antagonist activity at mGluR8 assessed as effect on glutamate-induced response; assay type: functional
[9] = target: T1, Metabotropic glutamate receptor 4; experiment: Activation of human mGluR4 expressed in CHO cells coexpressing Gqi5 protein assessed as fold shifting of glutamate-induced response at 30 uM; assay type: cell-based

T1 sequence (Q14833 whole entry): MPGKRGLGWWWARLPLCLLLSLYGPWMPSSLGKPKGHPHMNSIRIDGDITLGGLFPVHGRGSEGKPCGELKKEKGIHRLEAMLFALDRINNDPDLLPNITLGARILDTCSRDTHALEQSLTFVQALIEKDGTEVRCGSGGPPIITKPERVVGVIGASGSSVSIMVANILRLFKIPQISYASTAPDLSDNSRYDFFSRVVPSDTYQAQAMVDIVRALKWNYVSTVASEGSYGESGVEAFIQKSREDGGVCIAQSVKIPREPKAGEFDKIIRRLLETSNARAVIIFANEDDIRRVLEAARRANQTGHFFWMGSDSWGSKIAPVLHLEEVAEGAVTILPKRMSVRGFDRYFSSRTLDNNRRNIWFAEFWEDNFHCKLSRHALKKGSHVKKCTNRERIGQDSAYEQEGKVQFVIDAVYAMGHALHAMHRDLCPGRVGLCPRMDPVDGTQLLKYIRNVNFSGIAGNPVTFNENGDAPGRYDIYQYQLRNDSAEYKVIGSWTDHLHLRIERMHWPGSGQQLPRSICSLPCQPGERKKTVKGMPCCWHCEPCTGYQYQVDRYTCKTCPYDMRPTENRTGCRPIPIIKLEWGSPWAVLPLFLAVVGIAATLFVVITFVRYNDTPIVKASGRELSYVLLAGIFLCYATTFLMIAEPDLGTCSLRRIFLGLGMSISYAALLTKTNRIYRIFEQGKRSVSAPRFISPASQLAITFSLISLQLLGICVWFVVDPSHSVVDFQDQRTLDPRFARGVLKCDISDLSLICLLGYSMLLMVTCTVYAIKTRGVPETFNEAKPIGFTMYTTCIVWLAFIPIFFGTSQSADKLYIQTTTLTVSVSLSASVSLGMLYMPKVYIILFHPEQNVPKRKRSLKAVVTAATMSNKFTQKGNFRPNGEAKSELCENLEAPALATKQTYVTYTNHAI
Metabotropic glutamate receptor 1 (Homo sapiens), sequence (Q13255 19-1194 limits assumed): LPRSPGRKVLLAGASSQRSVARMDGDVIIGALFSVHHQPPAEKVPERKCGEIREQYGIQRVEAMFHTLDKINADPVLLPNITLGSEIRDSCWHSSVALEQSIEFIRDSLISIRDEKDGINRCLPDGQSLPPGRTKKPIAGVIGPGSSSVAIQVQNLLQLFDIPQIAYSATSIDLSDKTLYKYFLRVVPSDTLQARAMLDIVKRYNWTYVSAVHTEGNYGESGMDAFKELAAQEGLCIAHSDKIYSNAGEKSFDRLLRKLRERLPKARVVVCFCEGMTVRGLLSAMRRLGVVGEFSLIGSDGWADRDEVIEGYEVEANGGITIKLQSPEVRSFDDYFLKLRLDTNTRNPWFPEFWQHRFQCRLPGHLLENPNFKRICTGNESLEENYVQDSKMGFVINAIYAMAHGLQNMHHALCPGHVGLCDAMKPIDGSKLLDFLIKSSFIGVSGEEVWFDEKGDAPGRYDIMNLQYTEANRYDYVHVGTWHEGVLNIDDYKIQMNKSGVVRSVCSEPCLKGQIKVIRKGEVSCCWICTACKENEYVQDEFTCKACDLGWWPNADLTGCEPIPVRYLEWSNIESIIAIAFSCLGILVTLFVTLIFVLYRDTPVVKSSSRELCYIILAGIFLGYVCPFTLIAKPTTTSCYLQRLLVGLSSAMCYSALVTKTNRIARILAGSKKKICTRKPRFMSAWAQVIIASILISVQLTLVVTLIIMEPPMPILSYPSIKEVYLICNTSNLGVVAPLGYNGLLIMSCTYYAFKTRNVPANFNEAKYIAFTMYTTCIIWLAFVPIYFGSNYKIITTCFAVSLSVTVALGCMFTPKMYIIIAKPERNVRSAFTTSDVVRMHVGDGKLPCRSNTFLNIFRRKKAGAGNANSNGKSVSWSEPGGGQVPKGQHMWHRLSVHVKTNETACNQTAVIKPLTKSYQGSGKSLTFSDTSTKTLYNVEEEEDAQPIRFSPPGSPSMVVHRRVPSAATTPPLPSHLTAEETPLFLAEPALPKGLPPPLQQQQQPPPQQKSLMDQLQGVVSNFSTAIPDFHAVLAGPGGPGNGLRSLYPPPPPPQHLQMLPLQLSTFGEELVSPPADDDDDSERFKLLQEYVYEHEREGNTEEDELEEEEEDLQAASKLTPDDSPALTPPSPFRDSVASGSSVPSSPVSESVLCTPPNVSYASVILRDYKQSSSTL
Metabotropic glutamate receptor 5 (Homo sapiens), sequence (P41594 21-1212 limits assumed): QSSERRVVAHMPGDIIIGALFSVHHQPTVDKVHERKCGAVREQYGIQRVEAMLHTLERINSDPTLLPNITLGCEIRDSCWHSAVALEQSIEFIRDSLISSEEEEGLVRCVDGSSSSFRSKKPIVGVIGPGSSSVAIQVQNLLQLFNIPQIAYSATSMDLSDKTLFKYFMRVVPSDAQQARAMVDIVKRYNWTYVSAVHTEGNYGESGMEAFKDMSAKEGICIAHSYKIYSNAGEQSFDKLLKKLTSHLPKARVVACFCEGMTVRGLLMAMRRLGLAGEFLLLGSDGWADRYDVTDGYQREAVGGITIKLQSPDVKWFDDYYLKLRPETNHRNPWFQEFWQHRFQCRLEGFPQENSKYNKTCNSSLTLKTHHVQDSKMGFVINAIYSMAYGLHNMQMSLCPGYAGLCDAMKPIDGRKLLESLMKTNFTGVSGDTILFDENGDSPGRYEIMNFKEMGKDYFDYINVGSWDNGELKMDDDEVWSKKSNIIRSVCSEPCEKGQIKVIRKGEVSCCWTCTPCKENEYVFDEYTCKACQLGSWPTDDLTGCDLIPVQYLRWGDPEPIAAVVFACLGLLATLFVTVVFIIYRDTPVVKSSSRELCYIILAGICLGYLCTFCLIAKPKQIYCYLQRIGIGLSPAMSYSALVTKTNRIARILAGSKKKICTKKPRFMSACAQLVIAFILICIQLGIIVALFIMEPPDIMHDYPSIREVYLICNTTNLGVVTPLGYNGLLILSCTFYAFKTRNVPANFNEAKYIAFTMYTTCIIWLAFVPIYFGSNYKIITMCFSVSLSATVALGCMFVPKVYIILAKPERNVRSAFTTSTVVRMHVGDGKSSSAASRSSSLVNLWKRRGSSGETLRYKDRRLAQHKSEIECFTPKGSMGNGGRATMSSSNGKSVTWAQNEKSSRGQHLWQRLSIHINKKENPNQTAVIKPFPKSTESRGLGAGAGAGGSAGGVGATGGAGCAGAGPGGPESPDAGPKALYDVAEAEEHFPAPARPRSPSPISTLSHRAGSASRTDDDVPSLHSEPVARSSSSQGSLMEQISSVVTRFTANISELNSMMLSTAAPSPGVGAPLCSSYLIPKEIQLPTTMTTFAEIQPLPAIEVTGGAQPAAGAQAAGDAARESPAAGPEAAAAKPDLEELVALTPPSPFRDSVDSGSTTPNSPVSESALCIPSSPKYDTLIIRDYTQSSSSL
Metabotropic glutamate receptor 7 (Homo sapiens), sequence (Q14831 whole entry): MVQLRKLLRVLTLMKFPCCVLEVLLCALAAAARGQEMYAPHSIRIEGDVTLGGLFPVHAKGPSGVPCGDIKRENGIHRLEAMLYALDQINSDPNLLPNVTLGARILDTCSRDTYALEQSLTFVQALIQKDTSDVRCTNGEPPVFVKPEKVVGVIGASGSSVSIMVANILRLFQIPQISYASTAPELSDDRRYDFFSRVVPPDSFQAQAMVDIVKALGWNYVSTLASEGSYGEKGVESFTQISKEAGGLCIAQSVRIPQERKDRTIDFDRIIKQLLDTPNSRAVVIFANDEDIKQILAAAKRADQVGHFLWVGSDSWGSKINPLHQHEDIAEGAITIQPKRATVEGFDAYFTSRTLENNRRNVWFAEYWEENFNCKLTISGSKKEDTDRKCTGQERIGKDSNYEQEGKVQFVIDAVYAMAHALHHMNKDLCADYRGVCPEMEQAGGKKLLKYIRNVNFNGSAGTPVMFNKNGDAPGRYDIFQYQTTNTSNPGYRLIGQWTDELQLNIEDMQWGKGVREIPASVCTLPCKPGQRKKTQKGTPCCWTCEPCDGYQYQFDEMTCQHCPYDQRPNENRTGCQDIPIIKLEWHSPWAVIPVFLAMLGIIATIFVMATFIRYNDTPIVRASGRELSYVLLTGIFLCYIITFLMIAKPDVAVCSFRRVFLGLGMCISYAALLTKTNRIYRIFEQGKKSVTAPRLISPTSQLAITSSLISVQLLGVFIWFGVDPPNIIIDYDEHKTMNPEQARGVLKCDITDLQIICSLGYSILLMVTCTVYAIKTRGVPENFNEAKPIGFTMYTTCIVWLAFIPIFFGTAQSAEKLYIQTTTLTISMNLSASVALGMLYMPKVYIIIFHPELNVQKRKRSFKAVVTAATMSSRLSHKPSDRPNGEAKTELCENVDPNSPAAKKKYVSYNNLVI
Metabotropic glutamate receptor 8 (Homo sapiens), sequence (O00222 whole entry): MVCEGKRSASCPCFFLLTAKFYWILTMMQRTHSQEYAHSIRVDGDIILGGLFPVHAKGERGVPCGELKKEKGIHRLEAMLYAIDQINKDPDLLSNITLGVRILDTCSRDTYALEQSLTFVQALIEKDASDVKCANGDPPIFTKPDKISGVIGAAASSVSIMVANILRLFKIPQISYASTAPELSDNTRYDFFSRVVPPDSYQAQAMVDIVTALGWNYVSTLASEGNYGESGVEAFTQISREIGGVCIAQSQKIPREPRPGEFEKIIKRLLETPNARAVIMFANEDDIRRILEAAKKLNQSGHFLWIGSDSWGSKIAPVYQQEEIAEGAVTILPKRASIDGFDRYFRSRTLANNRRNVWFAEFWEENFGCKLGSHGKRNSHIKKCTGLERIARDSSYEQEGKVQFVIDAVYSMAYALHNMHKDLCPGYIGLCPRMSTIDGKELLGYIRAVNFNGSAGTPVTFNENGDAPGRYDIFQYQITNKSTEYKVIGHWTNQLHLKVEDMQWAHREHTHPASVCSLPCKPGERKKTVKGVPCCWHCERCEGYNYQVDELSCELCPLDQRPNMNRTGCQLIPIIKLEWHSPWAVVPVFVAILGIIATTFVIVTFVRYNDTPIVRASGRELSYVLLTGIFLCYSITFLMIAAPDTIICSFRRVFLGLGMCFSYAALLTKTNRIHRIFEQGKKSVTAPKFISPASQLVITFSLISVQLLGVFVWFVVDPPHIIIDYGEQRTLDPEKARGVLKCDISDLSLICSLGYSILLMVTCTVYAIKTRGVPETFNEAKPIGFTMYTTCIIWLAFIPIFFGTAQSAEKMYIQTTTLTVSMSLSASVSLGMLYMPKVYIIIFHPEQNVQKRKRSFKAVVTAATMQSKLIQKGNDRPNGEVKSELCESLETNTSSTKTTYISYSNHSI

SMILES | EC50 [1] | Activity [2] | other results
CC(c1ccccc1)C1Nc2ccccc2C(=O)N1c1cccc(F)c1 (stereo not given) | > 10 µM | 87% | 
COC(=O)c1ccc(N2C(=O)c3ccccc3NC2C(C)c2ccccc2)cc1 (stereo not given) | > 10 µM | 69% | 
O=C(Nc1ccccc1)[C@]12C[C@H]1/C(=N\O)c1ccccc1O2 |  |  | Activity [7]: 30%
Cc1ccc(N2C(=O)c3ccccc3NC2C(C)c2ccccc2)cc1 (stereo not given) | 3 µM | 129% | 
COc1ccccc1/C=N/Nc1nc2ccccc2nc1C |  |  | Activity [1]: inactive

More lines, main results first:

EC50 [1] | Activity [2] | SMILES | other results
> 5 µM | 87% | Cc1nc2ccccc2nc1N/N=C/c1ccc(F)cc1 | 
1.7 µM | 144% | Cc1nc2ccccc2nc1N/N=C/c1ccc(O)cc1 | Activity [3]: inactive; Activity [4]: inactive; Activity [5]: inactive; Activity [6]: inactive; Activity [7]: inactive; Activity [8]: inactive; fold change (FC) [9]: 36
2.4 µM | 136% | Cc1nc2ccccc2nc1N/N=C/c1cccc(O)c1 | 
4.1 µM | 57% | Cc1nc2ccccc2nc1N/N=C/c1ccccc1O | 
4.4 µM | 129% | Cc1nc2ccccc2nc1N/N=C/c1ccccc1 | 

— ChEMBL document CHEMBL1143275, “Positive allosteric modulators of the metabotropic glutamate receptor subtype 4 (mGluR4). Part II: Challenges in hit-to-lead” (Bioorg Med Chem Lett, 2009)
